Tested on: pregnant women in first trimester (nausea and vomiting, morning sickness)
Assay: Treatment of morning sickness in pregnant women with chewable tablets (volunteer reports)
Format: in vivo, human
Details: volunteer 8, recalled from their first pregnancy
Text: A group of pregnant women were provided with the tablets, as prepared in Example 3, and were advised to take one to two tablets per day.

`Cc1ncc(CO)c(CO)c1O` [vitamin B6, pyridoxine] was tested, and the “Reported effect of vitamin B6 injections on nausea of pregnancy” value was “did not feel helped”.

Source: patent US8536199B2, “Oral combination of vitamins” (priority 2008, dated 2013)
